From patent US20240216317A1, “COMPOSITION FOR PREVENTING, AMELIORATING OR TREATING INFLAMMATORY BOWEL DISEASE COMPRISING COMPOUND ISOLATED FROM ISODON EXCISUS AS EFFECTIVE COMPONENT” (HEALINNOLS INC., priority 2022, published 2024)

Key:
[1] = tested on: animal model of DSS-induced inflammatory bowel disease; test: Therapeutic effect in mouse model of DSS-induced inflammatory bowel disease (body weight, DAI, colon length); format: in vivo, mouse (C57BL/6); details: 5-ASA 100 mg/kg oral; for DAI / Colon length: Day 8, mouse, 2.5% DSS, Compound 1 2 mg/kg intraperitoneal; for DAI: 7 days, DSS group 11.75 ± 0.15; for Colon length: DSS group 4.9, normal control 8.4; for rate of body weight loss compared to group administered with DSS: mouse, 2.5% DSS 7 days, Chemical formula 1 2 mg/kg intraperitoneal, once a day for 7 days, FIG. 6
Text: As a mouse with induced inflammatory bowel disease, 6 week-old C57BL/6 was used, and the animal was induced to have the disease by administration of DSS (dextran sulfate sodium, MW 36000 to 50000, MP Biomedicals), Test groups were divided into the followings; normal control which has not been treated with any chemical (3 animals); group administered with DSS (6 animals); group administered with DSS+5-ASA (5-aminosalicylic acid, Sigma) (6 animals); and group administered with DSS+compound represented by Chemical formula 1 of the present invention (6 animals).
Inflammatory bowel disease is generally evaluated in terms of the disease activity index (DAI) based on clinical signs like body weight loss, diarrhea, and bloody feces. DAI is measured by giving a score to each of body weight loss rate, state of feces, and state of bloody feces (Table 1).
In this example, evaluation was made for 7 days for each test group. For all test groups except normal control, 100 ml of drinking water with 2.5% DSS were supplied for 7 days, while the water exchange was made every 2 days, to induce inflammatory bowel disease. The group administered with 5-ASA was orally administered, once a day for 7 days, with 100 mg/kg 5-ASA dispersed in 2.5% CMC (carboxymethylcellulose sodium, Sigma). The compound represented by Chemical formula 1 of the present invention (2 mg/kg) was administered via intraperitoneal injection, once a day for 7 days. From the first day of test, mouse of each test group was weighed to measure the rate of body weight loss. […] However, the weight loss was observed from Day 5 and thereafter in every test group induced to have inflammatory bowel disease by a treatment with DSS.
Evaluation of disease activity index (DAI) was also carried out, once a day from the first day of the test. From all test groups having inflammatory bowel disease induced by DSS treatment except normal control which has not been treated with any chemical, higher DAI was shown from Day 5 and thereafter.
Sum of each item analyzed on Day 8 based on the evaluation index of Table 1 was described as disease activation index (DAI) in Table 2.
With regard to the inflammatory response to inflammatory bowel disease, level of the response can be evaluated in terms of the decrease in colon length. Mouse in each test group was sacrificed on Day 8 and the colon was removed from the animal. Colon length was measured from the removed colon.

[2] = tested on: occludin; test: Immunofluorescence microscopy of tight junction-related protein occludin in intestinal epithelial wall model (DSS-treated Caco-2); format: cell-based, human; details: 3% DSS, 24 hours; Chemical formula 1 0.3, 1 or 3 μM; 5-ASA 500 μM; FIG. 3
Method: (§1) Caco-2 cell line (human intestinal epithelial cell line) and RAW 264.7 cell line, which is macrophage cells derived from mouse, were cultured at 37° C., 5% CO2 conditions by using DMEM (Dulbecco's Modified Eagle Medium, #11995065, Gibco) containing 10% FBS (fetal bovine serum, #16000044, Gibco) and 1% streptomycin/penicillin (#15140122, Gibco). For culturing the cells, the medium exchange was carried out every 2 to 3 days, and, once the cells are grown to the level of 80% in cell culture dish (#353003, Falcon), they were maintained by subculture.
(§2) The Caco-2 cells were adjusted to have density of 2×10^5 cells/ml. Suspension of the cells (0.5 ml) was aliquoted in apical side membrane phase of a transwell insert 12-well plate. To the basolateral side phase, 1.5 ml of culture medium were added. While replacing the medium with fresh one, once per 2 or 3 days, culture was continued for 21 days approximately, i.e., till to have cell division and suitable TEER (transepithelial electrical resistance) value of monolayer. […]
(§3) Thereafter, the cells were washed 3 times with 1×PBS for 5 minutes and treated for 5 minutes with Hoechst 33342 for staining the nucleus. […] After the mounting with ProLong™ Gold Antifade reagent, it was examined by confocal fluorescence microscopy.

[3] = tested on: claudin1; test: Immunofluorescence microscopy of tight junction-related protein claudin1 in intestinal epithelial wall model (DSS-treated Caco-2); format: cell-based, human; details: 3% DSS, 24 hours; Chemical formula 1 0.3, 1 or 3 μM; 5-ASA 500 μM; FIG. 4
Method: as §1, §2, §3

[4] = tested on: ZO-1; test: Immunofluorescence microscopy of tight junction-related protein ZO-1 in intestinal epithelial wall model (DSS-treated Caco-2); format: cell-based, human; details: 3% DSS, 24 hours; Chemical formula 1 0.3, 1 or 3 μM; 5-ASA 500 μM; FIG. 2
Method: as §1, §2, §3

Question: COC(=O)C[C@H](OC(=O)/C=C/c1ccc(O)c(O)c1)c1ccc(O)c(O)c1 [Compound 1, 3-[3,4-dihydroxyphenyl]acrylic acid 1-[3,4-dihydroxyphenyl]-2-methoxycarbonylethyl ester] was tested. Which DAI [1] did it give?
Answer: The DAI was 8.75 ± 0.21.

Question: What about the Colon length [1] of the same compound?
Answer: Its Colon length is 7.4 cm.

Question: And the “rate of body weight loss compared to group administered with DSS” value [1]?
Answer: Its value is “lower rate of body weight loss”.

Question: What about the “expression amount of occludin compared to DSS model group” value [2] of the same compound?
Answer: Its value is “statistically significantly higher”.

Question: What about the “expression amount of claudin1 compared to DSS model group” value [3] of the same compound?
Answer: The value was “statistically significantly higher”.

Question: What about the “expression amount of ZO-1 compared to DSS model group” value [4] of the same compound?
Answer: Its value is “statistically significantly higher”.

Question: Nc1ccc(O)c(C(=O)O)c1 [Compound 5-ASA, 5-aminosalicylic acid, reference compound] was tested. Which DAI [1] did it give?
Answer: The DAI was 10.67 ± 0.19.

Question: And the Colon length [1]?
Answer: The Colon length was 5.7 cm.

Question: And the “rate of body weight loss compared to group administered with DSS” value [1]?
Answer: Its value is “lower rate of body weight loss”.

Question: And the “expression amount of occludin compared to DSS model group” value [2]?
Answer: The value was “statistically significantly higher”.

Question: And the “expression amount of claudin1 compared to DSS model group” value [3]?
Answer: The value was “statistically significantly higher”.

Question: What about the “expression amount of ZO-1 compared to DSS model group” value [4] of the same compound?
Answer: Its value is “statistically significantly higher”.
